Reference: patent publication US20240208895A1, “BRANCHED-CHAIN AMINO ACID DERIVATIVES TO TREAT DISEASE” (INTRABIO LTD., priority 2021, published 2024)

Tests used:
physchem = format: physicochemical
From the text: The physiochemical parameters of L-leucine were compared with N-acetyl-L-leucine. […] Log P is the octanol:water partition coefficient for the neutral form of a compound. In contrast, log D considers the ionization state of a molecule in aqueous (biological) solution resulting from basic groups gaining a proton and acidic groups losing a proton, and as such is better correlated with passive diffusion across membranes.

OAT3 (SLC22A8) = target: T1, OAT3 (SLC22A8) (Homo sapiens, UniProt Q8TCC7); assay: Inhibition of OAT3 uptake of known substrate estrone-3-sulfate; format: cell-based; conditions: probe substrate estrone-3-sulfate 2 μM
T1 construct: host or cells: HEK-293
T1 sequence (Q8TCC7 1-542): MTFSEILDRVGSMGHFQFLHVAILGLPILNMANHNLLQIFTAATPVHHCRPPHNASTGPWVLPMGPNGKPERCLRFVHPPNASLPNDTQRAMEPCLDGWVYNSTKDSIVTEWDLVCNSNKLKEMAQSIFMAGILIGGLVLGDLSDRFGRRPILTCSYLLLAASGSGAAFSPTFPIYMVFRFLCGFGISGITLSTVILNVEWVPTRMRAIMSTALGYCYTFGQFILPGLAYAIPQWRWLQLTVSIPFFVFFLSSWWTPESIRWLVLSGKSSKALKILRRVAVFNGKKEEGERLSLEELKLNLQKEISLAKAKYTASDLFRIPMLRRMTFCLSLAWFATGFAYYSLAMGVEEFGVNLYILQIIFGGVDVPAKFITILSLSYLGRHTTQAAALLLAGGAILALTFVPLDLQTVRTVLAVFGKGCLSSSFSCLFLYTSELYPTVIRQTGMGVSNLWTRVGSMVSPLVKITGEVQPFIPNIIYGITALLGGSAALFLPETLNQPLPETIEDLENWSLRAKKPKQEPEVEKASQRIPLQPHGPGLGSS
Method: (§1) DMSO (0.5%) was the solvent control (SC) and the known inhibitor diclofenac (100 μM) was the positive control (PC). Data were fit to either the Michalis-Menten equation for uptake or the Hill equation for inhibition using the solvent control to define the top and the positive control inhibitor to define the bottom. Symbols represent the mean±SEM, n=3.
Human OAT1 (SLC22A6) and OAT3 (SLC22A8) overexpressing HEK-293 cells and control cells without transfected transporter (Corning® TransportoCells™) are plated to 24-well plates and cellular uptake of 10 to 100 μg/mL of a Compound of the Disclosure is measured in the absence and presence of transporter inhibitors. Uptake of a Compound of the Disclosure into control cells is measured only without chemical inhibitors. […] Cells are grown in DMEM (Gibco 4196, high glucose, without sodium pyruvate) supplemented with MEM non-essential amino acids and 10% fetal bovine serum. Cells are re-fed with fresh medium after attachment (4-6 hours post-seeding). Cell are plated at a density of 4×10^5/well in 24-well plates coated with poly-D-lysine. Transporter assays are conducted in 400 μL of HBSS supplemented with 10 mM Hepes, pH 7.4 […]
The IC50 value for the test item is determined by fitting the Hill equation in the following form: […]

PepT1 = target: T2, PepT1 (Homo sapiens, UniProt P46059); assay: PepT1 transporter-mediated cellular uptake (substrate test); format: cell-based; conditions: uptake 3 min, 37° C.
T2 construct: expressed in transfected cells
T2 sequence (P46059 1-708): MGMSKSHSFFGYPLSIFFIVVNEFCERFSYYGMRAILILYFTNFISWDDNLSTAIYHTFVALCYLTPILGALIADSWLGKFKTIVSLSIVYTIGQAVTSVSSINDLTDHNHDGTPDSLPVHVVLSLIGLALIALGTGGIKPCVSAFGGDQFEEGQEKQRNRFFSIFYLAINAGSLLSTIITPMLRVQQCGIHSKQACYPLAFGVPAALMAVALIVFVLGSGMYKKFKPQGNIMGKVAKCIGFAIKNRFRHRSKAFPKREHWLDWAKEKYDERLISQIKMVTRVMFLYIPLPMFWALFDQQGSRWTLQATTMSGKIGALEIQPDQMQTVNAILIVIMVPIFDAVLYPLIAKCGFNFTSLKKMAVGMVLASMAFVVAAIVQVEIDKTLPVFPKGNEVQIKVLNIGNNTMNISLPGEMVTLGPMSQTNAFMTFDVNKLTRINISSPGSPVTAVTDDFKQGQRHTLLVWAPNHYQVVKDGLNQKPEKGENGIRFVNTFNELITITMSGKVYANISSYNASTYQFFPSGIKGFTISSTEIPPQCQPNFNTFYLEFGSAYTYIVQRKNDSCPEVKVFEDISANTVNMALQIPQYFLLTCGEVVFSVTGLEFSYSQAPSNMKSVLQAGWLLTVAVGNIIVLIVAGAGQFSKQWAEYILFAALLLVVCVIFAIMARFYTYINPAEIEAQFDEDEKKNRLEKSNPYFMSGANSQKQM
Method: as §1, with “for” for “diclofenac (100 μM) was”, “(PC) was losartan (200 μM).” for “(PC).”, “Michaelis-Menten” for “Michalis-Menten”
Human OAT1 (SLC22A6) and OAT3 (SLC22A8) overexpressing HEK-293 cells and control cells without transfected transporter (Corning® TransportoCells™) are plated to 24-well plates and cellular uptake of 10 to 100 μg/mL of a Compound of the Disclosure is measured in the absence and presence of transporter inhibitors. Uptake of a Compound of the Disclosure into control cells is measured only without chemical inhibitors. […] Cells are grown in DMEM (Gibco 4196, high glucose, without sodium pyruvate) supplemented with MEM non-essential amino acids and 10% fetal bovine serum. Cells are re-fed with fresh medium after attachment (4-6 hours post-seeding). Cell are plated at a density of 4×10^5/well in 24-well plates coated with poly-D-lysine. Transporter assays are conducted in 400 μL of HBSS supplemented with 10 mM Hepes, pH 7.4
The known probe substrates used as positive controls are 3 μM chlorothiazide for OAT1, 2 μM estrone-3-sulfate for OAT3, 10 μM gabapentin for LAT1, 50 μM Gly-Sar for PepT1, 500 μM thiophene-2-glyoxylic acid for MCT1. […]

logD (physchem): -2.54
IC50 (OAT3 (SLC22A8)): 700 µM
substrate of PepT1 (uptake) (PepT1): not a substrate
Compound: CC(=O)N[C@@H](CC(C)C)C(=O)O [N-acetyl-L-leucine]
